# Measured values: patent publication US9284333B2, “Fused pyrroledicarboxamides and their use as pharmaceuticals” (SANOFI, priority 2012, dated 2016)
# Biological target: Human TASK-1 channels (Homo sapiens (Human), UniProt O14649)
# Assay: Determination of the activity on the TASK-1 channel in Xenopus oocytes (two-microelectrode voltage clamp)
# Type: cell-based
# Settings: compound concentration 5 μM
# Protocol: Determination of the activity on the TASK-1 channel in Xenopus oocytes
# Human TASK-1 channels were expressed in Xenopus oocytes. For this purpose, oocytes were isolated from Xenopus laevis and defoliculated. Subsequently, TASK-1-encoding RNA synthesized in vitro was injected into the oocytes. After two days of TASK-1 protein expression, TASK-1 currents were measured by two-microelectrode voltage clamp. Data were acquired and analyzed using a TEC-10cx amplifier (NPI Electronic, Tamm, Germany) connected to an ITC-16 interface (Instrutech Corp., Long Island, USA) and Pulse software (HEKA Elektronik, Lambrecht, Germany). Oocytes were clamped to −90 mV and TASK-1 mediated currents were measured during 500 ms voltage pulses to 40 mV. Oocytes were continuously superfused with ND96 buffer containing 96 mM sodium chloride, 2 mM potassium chloride, 1.8 mM calcium chloride, 1 mM magnesium chloride, 5 mM 4-(2-hydroxyethyl)-piperazine-1-ethanesulfonic acid (HEPES; pH adjusted to 7.4 with sodium hydroxide). All experiments were performed at room temperature. Test compounds were consecutively added to the bath solution at rising concentrations. Compound effects were calculated as the percentage inhibition of TASK-1 control current before compound addition. IC50 values were obtained by fitting the data to the general dose-response equation.
# Sequence of Human TASK-1 channels (O14649 whole entry): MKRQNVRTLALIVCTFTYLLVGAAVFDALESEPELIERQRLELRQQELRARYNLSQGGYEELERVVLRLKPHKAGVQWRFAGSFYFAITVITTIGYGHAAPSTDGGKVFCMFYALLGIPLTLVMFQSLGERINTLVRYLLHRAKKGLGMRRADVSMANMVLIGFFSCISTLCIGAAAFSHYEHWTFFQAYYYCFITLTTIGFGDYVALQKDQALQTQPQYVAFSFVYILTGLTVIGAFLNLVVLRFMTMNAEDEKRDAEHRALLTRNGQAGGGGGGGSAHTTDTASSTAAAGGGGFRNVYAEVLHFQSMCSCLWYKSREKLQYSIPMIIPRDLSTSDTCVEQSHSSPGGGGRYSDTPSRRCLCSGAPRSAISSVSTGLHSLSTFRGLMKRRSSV
row,inhibition at 5 µM [%],Compound
1,90,CC[C@H](NC(=O)c1cc(C(=O)N2CCC[C@@H]2C)n2c1COCC2)c1ccc(F)c(C(F)(F)F)c1 [16bp]
2,36,"CC[C@@H](NC(=O)c1cc(C(=O)NCc2cccnn2)n2c1COCC2)c1ccccc1 [16jf, 3,4-Dihydro-1H-pyrrolo[2,1-c][1,4]oxazine-6,8-dicarboxylic acid 8-[((R)-1-phenyl-propyl)-amide] 6-[(pyridazin-3-ylmethyl)-amide]]"
3,90,"CC[C@H](NC(=O)c1cc(C(=O)N[C@H](CC)c2ccc(C(F)(F)F)nc2)c2n1CCOC2)c1ccccc1 [16kf, 3,4-Dihydro-1H-pyrrolo[2,1-c][1,4]oxazine-6,8-dicarboxylic acid 6-[((S)-1-phenyl-propyl)-amide] 8-{[(R)-1-(6-trifluoromethyl-pyridin-3-yl)-propyl]-amide}]"

# Same assay, conditions: human TASK-1 expressed in Xenopus oocytes, room temperature; read-out: IC50 value for TASK-1 inhibition
row,Compound,IC50 [nM]
1,"CC[C@@H](NC(=O)c1cc(C(=O)N2CCC[C@@H]2C)n2c1COCC2)c1ccccc1 [16a, 6-((S)-2-Methyl-pyrrolidine-1-carbonyl)-3,4-dihydro-1H-pyrrolo[2,1-c][1,4]oxazine-8-carboxylic acid ((R)-1-phenyl-propyl)-amide]",69
2,"CC[C@@H](NC(=O)c1cc(C(=O)N2CCCCCC2)n2c1CCCC2)c1ccccc1 [16mr, 3-(Azepane-1-carbonyl)-5,6,7,8-tetrahydro-indolizine-1-carboxylic acid ((R)-1-phenyl-propyl)-amide]",200
3,"CC[C@@H](NC(=O)c1cc(C(=O)N2CCC[C@@H]2C)n2c1CCCC2)c1ccc(C#N)cc1 [16lx, 3-((S)-2-Methyl-pyrrolidine-1-carbonyl)-5,6,7,8-tetrahydro-indolizine-1-carboxylic acid [(R)-1-(4-cyano-phenyl)-propyl]-amide]",200
4,"CC[C@@H](NC(=O)c1cc(C(=O)N[C@H](C)c2ccc(F)cc2)n2c1COCC2)c1ccc(C(F)(F)F)cc1 [16eb, 3,4-Dihydro-1H-pyrrolo[2,1-c][1,4]oxazine-6,8-dicarboxylic acid 6-{[(R)-1-(4-fluoro-phenyl)-ethyl]-amide} 8-{[(R)-1-(4-trifluoromethyl-phenyl)-propyl]-amide}]",250
5,"CC[C@@H](NC(=O)c1cc(C(=O)N[C@H](CC)c2ccccc2)n2c1COCC2)c1ccc(C(F)(F)F)nc1 [16jy, 3,4-Dihydro-1H-pyrrolo[2,1-c][1,4]oxazine-6,8-dicarboxylic acid 6-[((R)-1-phenyl-propyl)-amide] 8-{[(R)-1-(6-trifluoromethyl-pyridin-3-yl)-propyl]-amide}]",180
6,"CC[C@@H](NC(=O)c1cc(C(=O)NCc2ccno2)n2c1COCC2)c1ccccc1 [16hf, 3,4-Dihydro-1H-pyrrolo[2,1-c][1,4]oxazine-6,8-dicarboxylic acid 6-[(isoxazol-5-ylmethyl)-amide] 8-[((R)-1-phenyl-propyl)-amide]]",380
7,"CC[C@@H](NC(=O)c1cc(C(=O)N2CCN(c3ccccn3)C[C@@H]2C)n2c1COCC2)c1ccccc1 [16fs, 6-((S)-2-Methyl-4-pyridin-2-yl-piperazine-1-carbonyl)-3,4-dihydro-1H-pyrrolo[2,1-c][1,4]oxazine-8-carboxylic acid ((R)-1-phenyl-propyl)-amide]",670
8,"CCC(NC(=O)c1cc(C(=O)N[C@H](CC)c2ccccc2)c2n1CCOC2)c1cnc(OC)nc1 (single isomer, unassigned) [16hu]",620
9,"CC(C)[C@@H](NC(=O)c1cc(C(=O)N2CCC[C@@H]2C)c2n1CCOC2)c1ccc(F)cc1 [16lj, 8-((S)-2-Methyl-pyrrolidine-1-carbonyl)-3,4-dihydro-1H-pyrrolo[2,1-c][1,4]oxazine-6-carboxylic acid [(R)-1-(4-fluoro-phenyl)-2-methyl-propyl]-amide]",200
10,"CC[C@@H](NC(=O)c1cc(C(=O)N2CCC[C@@H]2C)n2c1COCC2)c1c(Cl)cncc1Cl [16bv, 6-((S)-2-Methyl-pyrrolidine-1-carbonyl)-3,4-dihydro-1H-pyrrolo[2,1-c][1,4]oxazine-8-carboxylic acid [(R)-1-(3,5-dichloro-pyridin-4-yl)-propyl]-amide]",140
11,"CC[C@@H](NC(=O)c1cc(C(=O)N[C@H](CC)c2ncccn2)c2n1CCOC2)c1ccccc1 [16kd, 3,4-Dihydro-1H-pyrrolo[2,1-c][1,4]oxazine-6,8-dicarboxylic acid 6-[((R)-1-phenyl-propyl)-amide] 8-[((R)-1-pyrimidin-2-yl-propyl)-amide]]",140
12,"CC[C@H](NC(=O)c1cc(C(=O)N2CCC[C@@H]2C)n2c1COCC2)c1ccc(C(F)(F)F)nc1 [16bj, 6-((S)-2-Methyl-pyrrolidine-1-carbonyl)-3,4-dihydro-1H-pyrrolo[2,1-c][1,4]oxazine-8-carboxylic acid [(S)-1-(6-trifluoromethyl-pyridin-3-yl)-propyl]-amide]",4100
13,"CC[C@@H](NC(=O)c1cc(C(=O)N[C@@H]2CCc3ccccc32)n2c1COCC2)c1ccccc1 [16gp, 3,4-Dihydro-1H-pyrrolo[2,1-c][1,4]oxazine-6,8-dicarboxylic acid 6-(R)-indan-1-ylamide 8-[((R)-1-phenyl-propyl)-amide]]",570
14,"CC[C@H](NC(=O)c1cc(C(=O)N2CCC[C@@H]2C)n2c1COCC2)c1cnc(C(F)(F)F)cc1C(F)(F)F [16bx, 6-((S)-2-Methyl-pyrrolidine-1-carbonyl)-3,4-dihydro-1H-pyrrolo[2,1-c][1,4]oxazine-8-carboxylic acid [(S)-1-(4,6-bis-trifluoromethyl-pyridin-3-yl)-propyl]-amide]",480

# Second part, the molecule after the results:
row,IC50 [nM],Compound
1,310,"CC[C@@H](NC(=O)c1cc(C(=O)N[C@H](CC)c2ccccn2)n2c1COCC2)c1ccccc1 [16gr, 3,4-Dihydro-1H-pyrrolo[2,1-c][1,4]oxazine-6,8-dicarboxylic acid 8-[((R)-1-phenyl-propyl)-amide] 6-[((R)-1-pyridin-2-yl-propyl)-amide]]"
2,420,"CC(C)[C@@H](NC(=O)c1cc(C(=O)NCc2cnccn2)c2n1CCOC2)c1ccc(F)cc1 [16lo, 3,4-Dihydro-1H-pyrrolo[2,1-c][1,4]oxazine-6,8-dicarboxylic acid 6-{[(R)-1-(4-fluoro-phenyl)-2-methyl-propyl]-amide} 8-[(pyrazin-2-ylmethyl)-amide]]"
3,320,"CC[C@@H](NC(=O)c1cc(C(=O)N2CCCC2c2c(C)noc2C)n2c1COCC2)c1ccccc1 (stereo partly drawn) [16er, 6-[2-(3,5-Dimethyl-isoxazol-4-yl)-pyrrolidine-1-carbonyl]-3,4-dihydro-1H-pyrrolo[2,1-c][1,4]oxazine-8-carboxylic acid ((R)-1-phenyl-propyl)-amide]"
4,125,"C[C@@H](NC(=O)c1cc(C(=O)N[C@H](C)c2ccc(F)cc2)n2c1COCC2)c1ccc(F)cc1 [16dm, 3,4-Dihydro-1H-pyrrolo[2,1-c][1,4]oxazine-6,8-dicarboxylic acid bis-{[(R)-1-(4-fluoro-phenyl)-ethyl]-amide}]"
5,87,"CC[C@@H](NC(=O)c1cc(C(=O)N[C@H](C)c2ccc(F)cc2)c2n1CCS2)c1ccccc1 [16ku, 2,3-Dihydro-pyrrolo[2,1-b]thiazole-5,7-dicarboxylic acid 7-{[(R)-1-(4-fluoro-phenyl)-ethyl]-amide} 5-[((R)-1-phenyl-propyl)-amide]]"
6,9000,"C[C@H]1CCCN1C(=O)c1cc(C(=O)N[C@H]2CCc3nc(C(F)(F)F)ccc32)c2n1CCOC2 (racemic) [16cu, 6-((S)-2-Methyl-pyrrolidine-1-carbonyl)-3,4-dihydro-1H-pyrrolo[2,1-c][1,4]oxazine-8-carboxylic acid ((S)-2-trifluoromethyl-6,7-dihydro-5H-[1]pyrindin-5-yl)-amide]"
7,250,"CC[C@@H](NC(=O)c1cc(C(=O)NCc2cccc(C#N)c2)n2c1COCC2)c1ccccc1 [16gs, 3,4-Dihydro-1H-pyrrolo[2,1-c][1,4]oxazine-6,8-dicarboxylic acid 6-(3-cyano-benzylamide) 8-[((R)-1-phenyl-propyl)-amide]]"
8,1200,"O=C(NC(c1ccccc1)c1ccccc1)c1cc(C(=O)N2CCCC2)n2c1COCC2 [16di, 6-(Pyrrolidine-1-carbonyl)-3,4-dihydro-1H-pyrrolo[2,1-c][1,4]oxazine-8-carboxylic acid benzhydryl-amide]"
9,450,"CC[C@@H](NC(=O)c1cc(C(=O)N2CCC[C@@H]2C)n2c1COCC2)c1ccc(C#N)s1 [16rd, 6-((S)-2-Methyl-pyrrolidine-1-carbonyl)-3,4-dihydro-1H-pyrrolo[2,1-c][1,4]oxazine-8-carboxylic acid [(R)-1-(5-cyano-thiophen-2-yl)-propyl]-amide]"
10,2600,"CC[C@@H](NC(=O)c1cc(C(=O)N2CCC[C@@H]2C)n2c1COCC2)c1cccc(O)c1 [16ab, 6-((S)-2-Methyl-pyrrolidine-1-carbonyl)-3,4-dihydro-1H-pyrrolo[2,1-c][1,4]oxazine-8-carboxylic acid [(R)-1-(3-hydroxy-phenyl)-propyl]-amide]"
11,37,"CC[C@@H](NC(=O)c1cc(C(=O)N2CCC[C@@H]2C)n2c1SCC2)c1ccccc1 [16ks, 5-((S)-2-Methyl-pyrrolidine-1-carbonyl)-2,3-dihydro-pyrrolo[2,1-b]thiazole-7-carboxylic acid ((R)-1-phenyl-propyl)-amide]"
